From patent US20040132715A1, “Method to treat allergic rhinitis” (priority 2002, published 2004) come the findings set out here.

Common to all, as to format: in vivo
Experiment [1] concerns Croton Oil Induced Topical Inflammation in Mice. In words: Croton oil induced topical inflammation in mice (ear swelling). To be noted: for Difference in ear Thickness, Mean: group mean, s.c. x3 (Compound 1 10 mg/kg; Indomethacin 30 mg/kg), 6 h after croton oil.
The subject of experiment [2] is Zymosan Induced Peritonitis in Mice. In words: Zymosan induced peritonitis in mice (PMN influx into peritoneal cavity). The note with it: for effect on PMN influx (in words): Imetit, thioperamide 5 mg/kg, s.c.; for PMN (10^6 per mouse), mean: group mean; for PMN (10^6 per mouse), mean / PMN (10^6 per mouse), single mice: s.c. at -15 min and +2 h (Compound 1 10 mg/kg; Imetit, Thioperamide 5 mg/kg), 1 mg zymosan A i.p.; for PMN (10^6 per mouse), single mice: lavage at 4 h. The procedure: This is commonly used to induce peritonitis in mice and appears to act in a mast cell dependent manner. Male out-bred Swiss albino mice were purchased from Bantin and Kingman (T.O. strain; Hull, Humberside) and maintained on a standard chow pellet diet with tap water ad libitum and a 12:00 h light /dark cycle. All animals were housed for at least 3 days prior to experimentation to allow body weight to reach ˜30 g on the day of the experiment. […] Animals were briefly (30-60 s) anesthetized with halothane for all s.c. and i.p. treatments described below. Drugs were stored at room temperature, in the dark. On the day of the experiment, drugs were dissolved in sterile PBS as depicted below, and generously vortexed. […] Time −15 min: Compounds or PBS administered s.c. at the reported doses. Time 0: At time 0, mice received 1 mg zymosan A (Sigma) i.p. Time +2 h: Compounds or PBS administered s.c. at the reported doses. […] Peritoneal cavities were washed 4 h later with 3 mL of PBS containing 3 mM EDTA, and the number of migrated leukocytes determined, by taking an aliquot (100 μL) of the lavage fluid and diluting 1:10 in Turk's solution (0.01% crystal violet in 3% acetic acid). The samples were then vortexed and 10 μL of the stained cell solution were placed in a Neubauer haemocytometer. Differential cell counts were performed using a light microscope (Olympus B061). […] Statistical differences were determined by Anova followed by Bonferroni's post-hoc test.

In experiment [3] the test system is Sodium Urate Crystal Induced Peritonitis in Mice. In words: Sodium urate crystal (MSU) induced peritonitis in mice (PMN migration). The procedure:
Such crystals are the primary cause of the inflammation associated with acute gouty arthritis.
Male out-bred Swiss albino mice were purchased from Bantin and Kingman (T.O. strain; Hull, Humberside) and maintained on a standard chow pellet diet with tap water ad libitum and a 12:00 h light/dark cycle. All animals were housed for at least 3 days prior to experimentation to allow body weight to reach ˜30 g on the day of the experiment. For this particular experiment body weight was 30±1 (n=32).
Compound 1 was stored at room temperature in the dark. […] Mice received 3 mg mono sodium urate crystals (MSU) given intra-peritoneally at time 0.
Time +6 h: Peritoneal cavities were washed 6 h later with 3 mL of PBS containing 3 mM EDTA, and the number of migrated leukocytes determined, by taking an aliquot (100 μL) of the lavage fluid and diluting 1:10 in Turk's solution (0.01% crystal violet in 3% acetic acid). The samples were then vortexed and 10 μL of the stained cell solution were placed in a Neubauer hematocytometer. Differential cell counts were performed using a light microscope (Olympus B061). In view of their chromatic characteristics and their nucleus and cytoplasm appearance, cells polymorphonuclear cells (PMN, >95% neutrophils) could be easily differentiated
Experimental groups are described below:
Data are shown for single mice, and also shown as mean ±SE of (n) mice per group. Statistical differences were determined by Student's t test. A P value <0.05 was taken as significant.
PMN influx into the peritoneal cavity was measured at the 6 h time-point after collection of the lavage fluids and specific staining as described in the experimental section.

Where “and” joins values, the source holds several entries; their conditions need not be identical. Identical values can stand only once.

On to `COc1ccc2c(c1)c(CC(=O)O)c(C)n2C(=O)c1ccc(Cl)cc1` [Indomethacin, reference compound], for which, in experiment [1], the “Difference in ear Thickness, Mean” value amounted to 10.0 × 0.01 mm.
For the compound `N=C(N)SCCc1cnc[nH]1` [Imetit], in experiment [2] (Compound 1 10 mg/kg, 4 h), the “effect on PMN influx (in words)” value is “inactive”. Moreover, in experiment [2] (4 h), the “PMN (10^6 per mouse), mean” value is reported as 17.3 10^6 per mouse.
Turning to `S=C(NC1CCCCC1)N1CCC(c2cnc[nH]2)CC1` [Thioperamide], the “effect on PMN influx (in words)” value in experiment [2] (Compound 1 10 mg/kg, 4 h) is “significant inhibitory effect”. Also, in experiment [2] (4 h), the “PMN (10^6 per mouse), mean” value was 9.3 10^6 per mouse. Also, the “PMN (10^6 per mouse), single mice” value in experiment [2] was 9.3 10^6 per mouse and 16.5 10^6 per mouse and 7.2 10^6 per mouse and 10.8 10^6 per mouse and 5.4 10^6 per mouse and 9.9 10^6 per mouse and 6.9 10^6 per mouse and 8.1 10^6 per mouse. The “% inhib (PMN influx)” value in experiment [2] (vs PBS group, Compound 1 10 mg/kg, Thioperamide 5 mg/kg s.c., 4 h) is recorded as “(−46%)”.
Take `CN1CCN(C(=O)c2cc3cc(Cl)ccc3[nH]2)CC1` [Compound 1, (5-Chloro-1H-indol-2-yl)-(4-methyl-piperazin-1-yl)-methanone]: in experiment [3] (10 mg/kg s.c., 6 h), the “effect on PMN migration (in words)” value was “significantly reduced PMN migration”. The “PMN (10^6 per mouse), mean” value in experiment [3] (group mean, 10 mg/kg s.c. at -15 min, +2 h and +4 h, 3 mg MSU crystals i.p., 6 h time-point) is 6.8 10^6 per mouse; in experiment [2] (4 h) it was 6.6 10^6 per mouse. Moreover, the “PMN (10^6 per mouse), single mice” value in experiment [3] (single mice, 10 mg/kg s.c. at -15 min, +2 h and +4 h, 3 mg MSU crystals i.p., 6 h time-point, 10 mg/kg) was 7.8 10^6 per mouse (2×) and 4.5 10^6 per mouse and 3.0 10^6 per mouse and 8.1 10^6 per mouse and 9.3 10^6 per mouse and 6.6 10^6 per mouse and 7.2 10^6 per mouse; in experiment [2] it was 9.9 10^6 per mouse and 3.6 10^6 per mouse and 9.3 10^6 per mouse and 3.3 10^6 per mouse and 8.1 10^6 per mouse and 5.1 10^6 per mouse and 6.9 10^6 per mouse. For the same compound, in experiment [2] (Compound 1 10 mg/kg, 4 h), the “effect on PMN influx (in words)” value is “significantly reduced PMN influx”. In addition, the “effect on ear swelling (in words)” value in experiment [1] (10 mg/kg x 3 s.c.) was “significantly reduced the swelling”. For the same compound, the inhibition at 10 mg/kg in experiment [1] (Mus musculus, sc, 6 h, read-out: % inhib (ear swelling)) worked out at 28%. For the same compound, the “Difference in ear Thickness, Mean” value in experiment [1] stood at 12.0 × 0.01 mm. Moreover, in experiment [1] (single mice, s.c. 30 min before, 2 and 4 h after croton oil (Compound 1 10 mg/kg; Indomethacin 30 mg/kg), measured 6 h after croton oil), the “Difference in ear Thickness, single mice” value is 12 × 0.01 mm and 10 × 0.01 mm and 13 × 0.01 mm and 9 × 0.01 mm and 16 × 0.01 mm.
